Experimental data: patent publication US11051515B2, “3-acyl-benzamides and their use as herbicides” (Bayer Aktiengesellschaft, priority 2017, dated 2021)

Columns and labels:
ABUTH [1] = assay: Pre-emergence action against ABUTH; format: in vivo, Abutilon theophrasti; settings: pre-emergence, dosage 320 g/ha, scored visually after 3 weeks vs untreated controls
Summary of the method: (§1)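 Seeds sown in sandy loam in wood-fiber pots and covered with soil. Greenhouse growth; visual damage scored after 3 weeks versus untreated controls (100% = dead, 0% = like control).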

ABUTH [2] = assay: Post-emergence action against ABUTH; format: in vivo, Abutilon theophrasti; settings: post-emergence, dosage 80 g/ha, visual assessment about 3 weeks after treatment vs untreated controls
Summary of the method: (§2)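 Weeds grown in sandy loam in greenhouse, treated at one-leaf stage (2–3 weeks after sowing) with WP or EC formulations sprayed as aqueous suspension/emulsion at 600 to […] water with 0.2% wetting agent. Visual rating after about 3 weeks versus untreated controls, as % herbicidal action (100% = plants dead, 0% = like control).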

PHBPU [3] = assay: Post-emergence action against PHBPU; format: in vivo, Pharbitis purpurea; settings: post-emergence, dosage 80 g/ha
Summary of the method: as §2

VIOTR [4] = assay: Pre-emergence action against VIOTR; format: in vivo, Viola tricolor; settings: Dosage 320 g/ha, pre-emergence
Summary of the method: as §1

STEME [5] = assay: Post-emergence action against STEME; format: in vivo, Stellaria media; settings: post-emergence, dosage 80 g/ha
Summary of the method: as §2

AMARE [6] = assay: Post-emergence action against AMARE; format: in vivo, Amaranthus retroflexus; settings: post-emergence, dosage 80 g/ha, visual assessment about 3 weeks after treatment vs untreated controls
Summary of the method: as §2

STEME [7] = assay: Pre-emergence action against STEME; format: in vivo, Stellaria media; settings: Dosage 320 g/ha, pre-emergence
Summary of the method: as §1

AMARE [8] = assay: Pre-emergence action against AMARE; format: in vivo, Amaranthus retroflexus; settings: pre-emergence, dosage 320 g/ha, scored visually after 3 weeks vs untreated controls
Summary of the method: as §1

MATIN [9] = assay: Pre-emergence action against MATIN; format: in vivo, Matricaria inodora; settings: Dosage 320 g/ha, pre-emergence
Summary of the method: as §1

ECHCG [10] = assay: Pre-emergence action against ECHCG; format: in vivo, Echinochloa crus-galli; settings: pre-emergence, dosage 320 g/ha, scored visually after 3 weeks vs untreated controls
Summary of the method: as §1

POLCO [11] = assay: Post-emergence action against POLCO; format: in vivo, Polygonum convolvulus; settings: post-emergence, dosage 80 g/ha
Experimental: Seeds of monocotyledonous and dicotyledonous weed and crop plants are laid out in sandy loam soil in wood-fiber pots, covered with soil and cultivated in a greenhouse under good growth conditions. 2 to 3 weeks after sowing, the test plants are treated at the one-leaf stage. The compounds of the invention, formulated in the form of wettable powders (WP) or as emulsion concentrates (EC), are then sprayed onto the green parts of the plants in the form of an aqueous suspension or emulsion at a water application rate equating to […], with addition of 0.2% wetting agent. After the test plants have been left to stand in the greenhouse under optimal growth conditions for about 3 weeks, the action of the preparations is assessed visually in comparison to untreated controls (herbicidal action in percent (%): 100% activity=the plants have died, 0% activity=like control plants). […] At the same time, inventive compounds leave Gramineae crops such as barley, wheat, rye, millet/Sorghum, corn or rice virtually undamaged when applied post-emergence, even at high active ingredient dosages. In addition, some substances are also harmless to dicotyledonous crops such as soya, cotton, oilseed rape, sugar beet or potatoes. Some of the compounds according to the invention have high selectivity and are therefore suitable for controlling unwanted vegetation in agricultural crops by the post-emergence method. The data of Tables B18 to B34 below illustrate, in an exemplary manner, the […] herbicidal action of the compounds according to the invention, the herbicidal activity being stated in percent.

VIOTR [12] = assay: Post-emergence action against VIOTR; format: in vivo, Viola tricolor; settings: post-emergence, dosage 80 g/ha
Summary of the method: as §2

POLCO [13] = assay: Pre-emergence action against POLCO; format: in vivo, Polygonum convolvulus; settings: Dosage 320 g/ha, pre-emergence
Excerpt: Seeds of monocotyledonous and dicotyledonous weed plants and crop plants are laid out in sandy loam soil in wood-fiber pots and covered with soil. The compounds of the invention, formulated in the form of wettable powders (WP) or as emulsion concentrates (EC), are then applied to the surface of the covering soil in the form of an aqueous suspension or emulsion at a water application rate equating to […], with addition of 0.2% wetting agent. After the treatment, the pots are placed in a greenhouse and kept under good growth conditions for the trial plants. The damage to the test plants is scored visually after a test period of 3 weeks by comparison with untreated controls (herbicidal activity in percent (%): 100% activity=the plants have died, 0% activity=like control plants).

ALOMY = assay: Pre-emergence action against ALOMY; format: in vivo, Alopecurus myosuroides; settings: dosage 320 g/ha, pre-emergence, scored visually after 3 weeks vs untreated controls, 100% = plants have died, 0% = like control plants
Summary of the method: as §1

MATIN [14] = assay: Post-emergence action against MATIN; format: in vivo, Matricaria inodora; settings: post-emergence, dosage 80 g/ha, visual assessment about 3 weeks after treatment vs untreated controls
Summary of the method: as §2

ECHCG [15] = assay: Post-emergence action against ECHCG; format: in vivo, Echinochloa crus-galli; settings: post-emergence, dosage 80 g/ha, visual assessment about 3 weeks after treatment vs untreated controls
Summary of the method: as §2

SETVI [16] = assay: Pre-emergence action against SETVI; format: in vivo, Setaria viridis; settings: pre-emergence, dosage 320 g/ha, scored visually after 3 weeks vs untreated controls
Summary of the method: as §1

VERPE = assay: Pre-emergence action against VERPE; format: in vivo, Veronica persica; settings: Dosage 320 g/ha, pre-emergence
Summary of the method: as §1

SETVI [17] = assay: Post-emergence action against SETVI; format: in vivo, Setaria viridis; settings: post-emergence, dosage 80 g/ha, visual assessment about 3 weeks after treatment vs untreated controls
Summary of the method: as §2

CYPES [18] = assay: Pre-emergence action against CYPES; format: in vivo, Cyperus esculentus; settings: pre-emergence, dosage 320 g/ha, scored visually after 3 weeks vs untreated controls
Summary of the method: as §1

CYPES [19] = assay: Post-emergence action against CYPES; format: in vivo, Cyperus esculentus; settings: post-emergence, dosage 80 g/ha, visual assessment about 3 weeks after treatment vs untreated controls
Summary of the method: as §2

AVEFA = assay: Pre-emergence action against AVEFA; format: in vivo, Avena fatua; settings: dosage 320 g/ha, scored visually after 3 weeks vs untreated controls
Summary of the method: as §1

PHBPU [20] = assay: Pre-emergence action against PHBPU; format: in vivo, Pharbitis purpurea; settings: Dosage 320 g/ha, pre-emergence
Summary of the method: as §1

Row | SMILES | Pre-emergence action against ABUTH (herbicidal activity) (ABUTH [1]) [%] | Post-emergence action against ABUTH (herbicidal action in percent) (ABUTH [2]) [%] | Post-emergence action against PHBPU (PHBPU [3]) | Pre-emergence action against VERPE (VERPE) [%] | Post-emergence action against STEME (STEME [5]) | Post-emergence action against AMARE (herbicidal action in percent) (AMARE [6]) [%] | Pre-emergence action against STEME (STEME [7]) [%] | Pre-emergence action against AMARE (herbicidal activity) (AMARE [8]) [%] | Pre-emergence action against MATIN (MATIN [9]) [%] | Pre-emergence action against ECHCG (herbicidal activity) (ECHCG [10]) [%] | Post-emergence action against POLCO (POLCO [11]) | Post-emergence action against SETVI (herbicidal action in percent) (SETVI [17]) [%] | Post-emergence action against VIOTR (VIOTR [12]) | Pre-emergence action against POLCO (POLCO [13]) [%] | Pre-emergence action against ALOMY (herbicidal activity in percent) (ALOMY) [%] | Post-emergence action against MATIN (herbicidal action in percent) (MATIN [14]) [%] | Post-emergence action against ECHCG (herbicidal action in percent) (ECHCG [15]) [%] | Pre-emergence action against VIOTR (VIOTR [4]) [%] | Pre-emergence action against CYPES (herbicidal activity) (CYPES [18]) [%] | SETVI (Table B8, pre-emergence herbicidal activity) (SETVI [16]) [%] | other results
1 | CC(=O)c1c(C)ccc(C(=O)Nc2nnnn2C)c1C [1-1] |  |  |  |  |  |  |  |  |  |  |  |  |  |  |  |  |  |  |  |  | pest or weed control at 320 g/ha (ABUTH [1]; Abutilon theophrasti, 504 h, read-out: Pre-emergence action against ABUTH (herbicidal activity)): 90%; pest or weed control at 80 g/ha (ABUTH [2]; Abutilon theophrasti, 504 h, read-out: Post-emergence action against ABUTH (herbicidal action in percent)): 100%; pest or weed control at 80 g/ha (PHBPU [3]; Ipomoea purpurea, 504 h): 90%; pest or weed control at 320 g/ha (VIOTR [4]; Viola tricolor, 504 h): 100%; pest or weed control at 80 g/ha (STEME [5]; Stellaria media, 504 h): 100%; pest or weed control at 80 g/ha (AMARE [6]; Amaranthus retroflexus, 504 h, read-out: Post-emergence action against AMARE (herbicidal action in percent)): 100%; pest or weed control at 320 g/ha (STEME [7]; Stellaria media, 504 h): 90%; pest or weed control at 320 g/ha (AMARE [8]; Amaranthus retroflexus, 504 h, read-out: Pre-emergence action against AMARE (herbicidal activity)): 100%; pest or weed control at 320 g/ha (MATIN [9]; Tripleurospermum inodorum, 504 h): 100%; pest or weed control at 320 g/ha (ECHCG [10]; Echinochloa crus-galli, 504 h, read-out: Pre-emergence action against ECHCG (herbicidal activity)): 90%; pest or weed control at 80 g/ha (POLCO [11]; Fallopia convolvulus, 504 h): 80%; pest or weed control at 80 g/ha (VIOTR [12]; Viola tricolor, 504 h): 100%; pest or weed control at 320 g/ha (POLCO [13]; Fallopia convolvulus, 504 h): 80%; pest or weed control at 320 g/ha (ALOMY; Alopecurus myosuroides, 504 h, read-out: Pre-emergence action against ALOMY (herbicidal activity in percent)): 80%; pest or weed control at 80 g/ha (MATIN [14]; Tripleurospermum inodorum, 504 h, read-out: Post-emergence action against MATIN (herbicidal action in percent)): 80%; pest or weed control at 80 g/ha (ECHCG [15]; Echinochloa crus-galli, 504 h, read-out: Post-emergence action against ECHCG (herbicidal action in percent)): 100%; pest or weed control at 320 g/ha (SETVI [16]; Setaria viridis, 504 h, read-out: SETVI (Table B8, pre-emergence herbicidal activity)): 90%
2 | CCn1nnnc1NC(=O)c1ccc(Cl)c(C(=O)C(C)C)c1Cl [2-280] | 100 | 90 | 100 | 90 | 100 | 100 | 90 | 100 | 100 | 100 | 80 | 90 | 90 | 80 | 100 | 90 | 90 |  |  |  | 
3 | CCn1nnnc1NC(=O)c1ccc(C)c(C(C)=O)c1C [2-1] | 90 | 80 | 90 |  | 80 | 100 | 90 | 100 | 90 | 90 | 100 | 80 | 100 | 90 | 90 | 90 | 100 | 100 | 80 | 90 | 
4 | CCCn1nnnc1NC(=O)c1ccc(C(F)(F)F)c(C(C)=O)c1Br [3-195] | 100 |  | 90 | 100 | 90 |  | 90 | 100 | 100 | 100 | 90 | 90 | 90 |  | 80 | 90 | 90 | 100 | 90 | 100 | Post-emergence action against CYPES (herbicidal action in percent) (CYPES [19]): 80%; Pre-emergence action against AVEFA (herbicidal activity) (AVEFA): 90%; Pre-emergence action against PHBPU (PHBPU [20]): 90%
